In brackets after ≈: the same amount, converted by molar mass.
Assays:
[1] = Stability of the compound in 1,4-dioxane assessed as negative cotton effect at 50 uM by CD spectroscopic method; type: physicochemical
[2] = Stability of the compound in n-Octanol assessed as negative cotton effect at 50 uM by CD spectroscopic method; type: physicochemical
[3] = Stability of the compound in THF assessed as negative cotton effect at 50 uM by CD spectroscopic method; type: physicochemical
[4] = Stability of the compound in acetonitrile assessed as negative cotton effect at 50 uM by CD spectroscopic method; type: physicochemical
[5] = Hemolytic activity against human erythrocytes at 20 to 140 uM after 30 mins; type: ADME, cell-based; conditions: erythrocyte, 0.5 h
[6] = Stability of the compound in MeOH assessed as negative cotton effect at 50 uM by CD spectroscopic method; type: physicochemical
[7] = tested on: Escherichia coli; test: Antimicrobial activity against Escherichia coli ATCC 25922 after 16 to 20 hrs by broth microdilution method; type: functional
[8] = tested on: Streptococcus pneumoniae; test: Antimicrobial activity against Streptococcus pneumoniae serotype 19A after 16 to 20 hrs by broth microdilution method; type: functional
[9] = tested on: Staphylococcus aureus; test: Antimicrobial activity against methicillin-resistant Staphylococcus aureus ATCC 43300 after 16 to 20 hrs by broth microdilution method; type: functional
[10] = tested on: Pseudomonas aeruginosa; test: Antimicrobial activity against Pseudomonas aeruginosa ATCC 27853 after 16 to 20 hrs by broth microdilution method; type: functional
[11] = tested on: Enterococcus faecalis; test: Antimicrobial activity against Enterococcus faecalis ATCC 29212 after 16 to 20 hrs by broth microdilution method; type: functional
[12] = tested on: Klebsiella pneumoniae; test: Antimicrobial activity against Klebsiella pneumoniae ATCC 13883 after 16 to 20 hrs by broth microdilution method; type: functional
[13] = tested on: Plasmodium falciparum; test: Antimalarial activity against chloroquine-sensitive Plasmodium falciparum 3D7 after 72 hrs by NBT based LDH assay; type: functional; conditions: 3D7, 72 h
[14] = tested on: Plasmodium falciparum; test: Antimalarial activity against chloroquine-resistant Plasmodium falciparum Dd2 after 72 hrs by NBT based LDH assay; type: functional; conditions: Dd2, 72 h
[15] = tested on: Staphylococcus epidermidis; test: Antimicrobial activity against Staphylococcus epidermidis PP62A after 16 to 20 hrs by broth microdilution method; type: functional
[16] = tested on: Enterococcus faecium; test: Antimicrobial activity against Enterococcus faecium DSMZ 20477 after 16 to 20 hrs by broth microdilution method; type: functional
[17] = tested on: Proteus mirabilis; test: Antimicrobial activity against Proteus mirabilis ATCC 7002 after 16 to 20 hrs by broth microdilution method; type: functional

## CC(=O)N[C@H](C(=O)NCC(=O)N[C@@H](C)C(=O)N[C@H](CC(C)C)C(=O)N[C@@H](C)C(=O)N[C@@H](C(=O)N[C@H](C(=O)N[C@@H](C(=O)N[C@@H](Cc1c[nH]c2ccccc12)C(=O)N[C@H](CC(C)C)C(=O)N[C@@H](Cc1c[nH]c2ccccc12)C(=O)N[C@H](CC(C)C)C(=O)N[C@@H](Cc1c[nH]c2ccccc12)C(=O)N[C@H](CC(C)C)C(=O)N[C@@H](Cc1c[nH]c2ccccc12)C(=O)NCCSSCCC(=O)N[C@H](C(=O)NCC(=O)N[C@@H](C)C(=O)N[C@H](CC(C)C)C(=O)N[C@@H](C)C(=O)N[C@@H](C(=O)N[C@H](C(=O)N[C@@H](C(=O)N[C@@H](Cc1c[nH]c2ccccc12)C(=O)N[C@H](CC(C)C)C(=O)N[C@@H](Cc1c[nH]c2ccccc12)C(=O)N[C@H](CC(C)C)C(=O)N[C@@H](Cc1c[nH]c2ccccc12)C(=O)N[C@H](CC(C)C)C(=O)N[C@@H](Cc1c[nH]c2ccccc12)C(=O)NCCO)C(C)C)C(C)C)C(C)C)C(C)C)C(C)C)C(C)C)C(C)C)C(C)C
[1]
  Stability: Stable
[2]
  Stability: Stable
[3]
  Stability: Stable
[4]
  Stability: Stable
[5]
  Activity: Non-Toxic
[6]
  Stability: Stable

## CC(=O)N[C@H](C(=O)NCC(=O)N[C@@H](C)C(=O)N[C@H](CC(C)C)C(=O)N[C@@H](C)C(=O)N[C@@H](C(=O)N[C@H](C(=O)N[C@@H](C(=O)N[C@@H](Cc1c[nH]c2ccccc12)C(=O)N[C@H](CC(C)C)C(=O)N[C@@H](Cc1c[nH]c2ccccc12)C(=O)N[C@H](CC(C)C)C(=O)N[C@@H](Cc1c[nH]c2ccccc12)C(=O)N[C@H](CC(C)C)C(=O)N[C@@H](Cc1c[nH]c2ccccc12)C(=O)NCCSSCCNC(=O)[C@H](Cc1c[nH]c2ccccc12)NC(=O)[C@@H](CC(C)C)NC(=O)[C@H](Cc1c[nH]c2ccccc12)NC(=O)[C@@H](CC(C)C)NC(=O)[C@H](Cc1c[nH]c2ccccc12)NC(=O)[C@@H](CC(C)C)NC(=O)[C@H](Cc1c[nH]c2ccccc12)NC(=O)[C@H](NC(=O)[C@@H](NC(=O)[C@H](NC(=O)[C@H](C)NC(=O)[C@@H](CC(C)C)NC(=O)[C@H](C)NC(=O)CNC(=O)[C@@H](NC(C)=O)C(C)C)C(C)C)C(C)C)C(C)C)C(C)C)C(C)C)C(C)C)C(C)C
[7]
  MIC: > 64 µg/mL
[8]
  MIC: 0.1 µg/mL (≈ 0.0262 µM)
[9]
  MIC: > 64 µg/mL
[1]
  Stability: Stable
[2]
  Stability: Stable
[10]
  MIC: > 64 µg/mL
[3]
  Stability: Stable
[11]
  MIC: > 64 µg/mL
[12]
  MIC: > 64 µg/mL
[13]
  IC50: 10 nM
[14]
  IC50: 0.2 nM
[15]
  MIC: > 64 µg/mL
[16]
  MIC: > 64 µg/mL
[17]
  MIC: > 64 µg/mL
[5]
  Activity: Non-Toxic
[6]
  Stability: Stable

Reference: ChEMBL document CHEMBL3870335, “Bioactivity of topologically confined gramicidin A dimers” (Bioorg Med Chem, 2017)
